Test results as given in article PMC5674511, “Increase of enzyme activity through specific covalent modification with fragments” (Chemical Science, 2017).

Legend:
[1] = biological target: T1, BtGH84 (Bacteroides thetaiotaomicron, UniProt Q89ZI2, C441S/C675S/Y571C); assay: binding constant; method not stated in main text; conditions: read-out: BtGH84_TM / None
T1 construct: gene BT_4395; recombinant purified enzyme
T1 sequence (Q89ZI2 22-737 C441S/Y571C/C675S): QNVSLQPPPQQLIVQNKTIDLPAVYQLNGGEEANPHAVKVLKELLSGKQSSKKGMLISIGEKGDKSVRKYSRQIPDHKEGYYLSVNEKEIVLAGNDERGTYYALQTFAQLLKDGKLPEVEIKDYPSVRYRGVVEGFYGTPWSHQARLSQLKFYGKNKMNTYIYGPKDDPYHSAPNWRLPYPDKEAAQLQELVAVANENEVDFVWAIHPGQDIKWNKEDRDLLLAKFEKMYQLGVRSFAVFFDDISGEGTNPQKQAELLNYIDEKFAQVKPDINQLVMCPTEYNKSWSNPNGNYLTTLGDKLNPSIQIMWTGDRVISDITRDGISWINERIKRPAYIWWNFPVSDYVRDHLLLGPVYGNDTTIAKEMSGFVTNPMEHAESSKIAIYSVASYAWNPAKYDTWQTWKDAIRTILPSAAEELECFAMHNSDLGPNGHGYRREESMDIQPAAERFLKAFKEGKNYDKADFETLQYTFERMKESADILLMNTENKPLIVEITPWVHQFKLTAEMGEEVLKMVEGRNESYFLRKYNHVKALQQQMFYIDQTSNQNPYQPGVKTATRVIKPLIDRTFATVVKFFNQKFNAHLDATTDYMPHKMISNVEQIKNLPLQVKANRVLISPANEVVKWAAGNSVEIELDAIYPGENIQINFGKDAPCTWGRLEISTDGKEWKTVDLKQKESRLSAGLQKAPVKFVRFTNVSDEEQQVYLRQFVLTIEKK
Text: (§1) binding constant; method not stated in main text on BtGH84

[2] = biological target: T2, BtGH84 (Bacteroides thetaiotaomicron, UniProt Q89ZI2); assay: binding constant; method not stated in main text; conditions: read-out: BtGH84 / None
T2 construct: gene BT_4395; recombinant purified enzyme
T2 sequence (Q89ZI2 22-737): T1 sequence (Q89ZI2 22-737 C441S/Y571C/C675S)
Text: as §1

CCNC1=N[C@@H]2[C@@H](O)[C@H](O)[C@@H](CO)O[C@@H]2S1 [compound 2, thiamet-G]
Kd [1]: 52 ± 5.7 nM | Kd [2]: 50 nM
